| melting point | SMILES |
| --- | --- |
| 214 to 216 °C | CCc1nn(-c2ccc(F)cc2)c2cc(C3=CCC(C(=O)O)CC3)ccc12 (centres unmarked) [Example 24, 4-(3-ethyl-1-(4-fluorophenyl)-1H-indazol-6-yl)-cyclohex-3-ene-carboxylic acid] |
| 72 to 73 °C | CCc1nn(-c2ccc(F)cc2)c2cc(Br)ccc12 [Example 20, 6-Bromo-3-ethyl-1-(4-fluorophenyl)-1H-indazole] |

From patent publication US6716978B2, “Therapeutically active compounds based on indazole bioisostere replacement of catechol in PDE4 inhibitors” (Pfizer Inc, priority 1997, dated 2004)
